Laboratory results reported in US20240076293A1, “Compositions and Methods for Inhibiting Fibrosis, Inflammation and Cancer” (Georgia Tech Research Corporation, priority 2020, published 2024).
Like-named read-outs stand apart in the source and are kept apart here.

Legend:
Type in all cases: cell-based
MCF-7 = assay: Anti-proliferation IC50, MCF-7; conditions: Homo sapiens, MCF7
A549 = assay: Anti-proliferation IC50, A549; conditions: Homo sapiens
[1] = Anti-proliferation IC50, MRC-5; conditions: human, MRC-5 cells; Table 1, compounds of formula I; NI = no inhibition up to 500 μM
Hep-G2 = assay: Anti-proliferation IC50, Hep-G2; conditions: Homo sapiens, HepG2
MDA-MB-231 = assay: Anti-proliferation IC50, MDA-MB-231; conditions: Homo sapiens
VERO = assay: Anti-proliferation IC50, VERO; conditions: Chlorocebus sabaeus
MRC-5 = assay: Anti-proliferation IC50, MRC-5; conditions: Homo sapiens, MRC5; Table 2, compounds of formula II
[2] = Table 1, compounds of formula I, NI = no inhibition up to 500 μM, read-out: MCF-7 (IC50)
[3] = Table 1, compounds of formula I, NI = no inhibition up to 500 μM, read-out: A549 (IC50)
[4] = Table 1, compounds of formula I, NI = no inhibition up to 500 μM, read-out: Hep-G2 (IC50)
[5] = Table 1, compounds of formula I, NI = no inhibition up to 500 μM, read-out: MDA-MB-231 (IC50)
[6] = Table 1, compounds of formula I, NI = no inhibition up to 500 μM, read-out: VERO (IC50)
[7] = Table 2, compounds of formula II, read-out: Anti-proliferation IC50 A549
[8] = Table 2, compounds of formula II, read-out: Anti-proliferation IC50 Hep-G2
[9] = Table 2, compounds of formula II, read-out: Anti-proliferation IC50 VERO
[10] = Anti-proliferation IC50 for the new compounds, read-out: Hep-G2 (IC50 μM)
[11] = Anti-proliferation IC50 for the new compounds, read-out: MDA-MB-231 (IC50 μM)
[12] = Anti-proliferation IC50 for the new compounds, read-out: VERO (IC50 μM)
[13] = Anti-proliferation IC50 for the new compounds, read-out: MCF-7 (IC50 μM)

Row | Compound | IC50 (A549; [7]) [µM] | IC50 (MRC-5) [µM] | IC50 (Hep-G2; [8]) [µM] | IC50 (VERO; [9]) [µM] | also measured
1 | CC[C@H]1OC(=O)[C@@H](C)[C@@H](O[C@@H]2C[C@](C)(OC)[C@H](O)[C@@H](C)O2)[C@@H](C)[C@@H](O[C@H]2O[C@@H](C)C[C@@H](N(C)C)[C@@H]2OC(=O)CCCC[C@H]2CCSS2)[C@](C)(OC)C[C@@H](C)C(=O)[C@H](C)[C@H](O)[C@]1(C)O |  |  |  |  | IC50 (MCF-7; [2]): > 500 µM; IC50 (A549; [3]): > 500 µM; IC50 [1]: 44.8 ± 7.1 µM; IC50 (Hep-G2; [4]): > 500 µM; IC50 (MDA-MB-231; [5]): 65 ± 0.9 µM; IC50 (VERO; [6]): > 500 µM
2 | CC[C@H]1OC(=O)[C@@H](C)[C@@H](O)[C@@H](C)[C@@H](O[C@H]2O[C@@H](C)C[C@@H](N(C)C)[C@@H]2OC(=O)CCCC[C@H]2CCSS2)[C@](C)(OC)C[C@@H](C)C(=O)[C@H](C)[C@H](O)[C@]1(C)O |  |  |  |  | IC50 (MCF-7; [2]): 477.3 ± 3.4 µM; IC50 (A549; [3]): > 500 µM; IC50 [1]: 262.6 ± 0.4 µM; IC50 (Hep-G2; [4]): 222 ± 5.3 µM; IC50 (MDA-MB-231; [5]): 414.4 ± 1.7 µM; IC50 (VERO; [6]): > 500 µM
3 | CC[C@@H]1OC(=O)[C@@H](C)[C@H](O)[C@@H](C)[C@H](O[C@@H]2O[C@H](C)C[C@H](N(C)C)[C@H]2OC(=O)CCCC[C@H]2CCSS2)C(C)(O)C[C@H](C)CN(C)[C@@H](C)[C@H](O)[C@@]1(C)O (stereo partly shown) | 282 ± 14.3 | 143 ± 17.1 | 225 ± 12.8 | 273 ± 26.9 | IC50 (MDA-MB-231; Table 2, compounds of formula II, read-out: Anti-proliferation IC50 MDA-MB-231): 400 ± 32.4 µM
4 | CC[C@H]1OC(=O)[C@H](C)[C@@H](O[C@H]2C[C@@](C)(OC)[C@@H](O)[C@H](C)O2)[C@H](C)[C@@H](O[C@@H]2O[C@H](C)C[C@H](N(C)C)C2OC(=O)CCCCC(CCSCc2ccccc2)SCc2ccccc2)[C@](C)(O)C[C@@H](C)CN(C)[C@H](C)[C@@H](O)[C@]1(C)O (stereo partly shown) [AO-03-032] |  |  |  |  | IC50 (A549; Anti-proliferation IC50 for the new compounds, read-out: A549 (IC50 μM)): 7.6 µM; IC50 (Hep-G2; [10]): 4.2 µM; IC50 (MDA-MB-231; [11]): 6.4 µM; IC50 (VERO; [12]): 10.4 µM
5 | CC[C@H]1OC(=O)[C@H](C)[C@@H](O[C@H]2C[C@@](C)(OC)[C@@H](O)[C@H](C)O2)[C@H](C)[C@@H](O[C@@H]2O[C@H](C)C[C@H](N(C)C(=O)CCCCC(CCSCc3ccccc3)SCc3ccccc3)[C@H]2O)[C@](C)(O)C[C@@H](C)CN(C)[C@H](C)[C@@H](O)[C@]1(C)O (stereo partly shown) [AZM-613] |  |  |  |  | IC50 (MCF-7; [13]): 2.8 µM; IC50 (Hep-G2; [10]): 2.9 µM; IC50 (MDA-MB-231; [11]): 2.1 µM; IC50 (VERO; [12]): 6.5 µM
6 | O=C(O)CCCCC(CCSCc1ccccc1)SCc1ccccc1 (stereo not shown) [CIP-613, reference compound] |  |  |  |  | IC50 (MCF-7; [13]): 206 µM; IC50 (Hep-G2; [10]): 232 µM; IC50 (MDA-MB-231; [11]): 236 µM; IC50 (VERO; [12]): 224 µM
7 | CC[C@H]1OC(=O)[C@H](C)[C@@H](O[C@H]2C[C@@](C)(OC)[C@@H](O)[C@H](C)O2)[C@H](C)[C@@H](O[C@@H]2O[C@H](C)C[C@H](N(C)Cc3ccc(-n4cc(C)ccc4=O)cc3)[C@H]2O)[C@](C)(O)C[C@@H](C)CN(C)[C@H](C)[C@@H](O)[C@]1(C)O [Compound 11a] | 47.2 ± 5.1 | 55.8 ± 1.9 | 33 ± 5.4 | 47.2 ± 0.4 | 
8 | CC[C@H]1OC(=O)[C@H](C)[C@@H](O[C@H]2C[C@@](C)(OC)[C@@H](O)[C@H](C)O2)[C@H](C)[C@@H](O[C@@H]2O[C@H](C)C[C@H](N(C)Cc3cn(Cc4ccc(-n5cc(C)ccc5=O)cc4)nn3)[C@H]2O)[C@](C)(O)C[C@@H](C)CN(C)[C@H](C)[C@@H](O)[C@]1(C)O [Compound 11b] | 265 ± 4 | 121 ± 14.1 | 234 ± 31.1 | 122 ± 19.4 | 
9 | CC[C@H]1OC(=O)[C@H](C)[C@@H](O[C@H]2C[C@@](C)(OC)[C@@H](O)[C@H](C)O2)[C@H](C)[C@@H](O[C@@H]2O[C@H](C)C[C@H](N(C)Cc3ccc(-c4cn(Cc5ccc(-n6cc(C)ccc6=O)cc5)nn4)cc3)[C@H]2O)[C@](C)(O)C[C@@H](C)CN(C)[C@H](C)[C@@H](O)[C@]1(C)O [Compound 11c] | 18.4 ± 4.4 | 13.4 ± 0.1 | 11.1 ± 0.3 | 16.2 ± 2.8 | 
10 | CC[C@H]1OC(=O)[C@H](C)[C@@H](O[C@H]2C[C@@](C)(OC)[C@@H](O)[C@H](C)O2)[C@H](C)[C@@H](O[C@@H]2O[C@H](C)C[C@H](N(C)CCc3ccc(-n4cc(C)ccc4=O)cc3)[C@H]2O)[C@](C)(O)C[C@@H](C)CN(C)[C@H](C)[C@@H](O)[C@]1(C)O [Compound 13a] | 40.8 ± 4 | 36.1 ± 3.3 | 27.2 ± 2.3 | 30.3 ± 5.2 | 
11 | CC[C@H]1OC(=O)[C@H](C)[C@@H](O[C@H]2C[C@@](C)(OC)[C@@H](O)[C@H](C)O2)[C@H](C)[C@@H](O[C@@H]2O[C@H](C)C[C@H](N(C)Cc3cn(CCc4ccc(-n5cc(C)ccc5=O)cc4)nn3)[C@H]2O)[C@](C)(O)C[C@@H](C)CN(C)[C@H](C)[C@@H](O)[C@]1(C)O [Compound 13b] | 144 ± 24.5 | 172 ± 26.9 | 163.4 ± 1.6 | 151 ± 30.6 | 
12 | CC[C@H]1OC(=O)[C@H](C)[C@@H](O[C@H]2C[C@@](C)(OC)[C@@H](O)[C@H](C)O2)[C@H](C)[C@@H](O[C@@H]2O[C@H](C)C[C@H](N(C)Cc3ccc(-c4cn(CCc5ccc(-n6cc(C)ccc6=O)cc5)nn4)cc3)[C@H]2O)[C@](C)(O)C[C@@H](C)CN(C)[C@H](C)[C@@H](O)[C@]1(C)O [Compound 13c] | 15.8 ± 3 | 13.3 ± 0.9 | 21.8 ± 0.4 | 22.6 ± 4.9 | 
13 | CC[C@H]1OC(=O)[C@H](C)[C@@H](O[C@H]2C[C@@](C)(OC)[C@@H](O)[C@H](C)O2)[C@H](C)[C@@H](O[C@@H]2O[C@H](C)C[C@H](N(C)CCCCc3ccc(-n4cc(C)ccc4=O)cc3)[C@H]2O)[C@](C)(O)C[C@@H](C)CN(C)[C@H](C)[C@@H](O)[C@]1(C)O [Compound 15a] | 43.2 ± 5.7 | 5.9 ± 0.1 | 52.2 ± 1 | 23.9 ± 1.7 | 
14 | CC[C@H]1OC(=O)[C@H](C)[C@@H](O[C@H]2C[C@@](C)(OC)[C@@H](O)[C@H](C)O2)[C@H](C)[C@@H](O[C@@H]2O[C@H](C)C[C@H](N(C)Cc3cn(CCCCc4ccc(-n5cc(C)ccc5=O)cc4)nn3)[C@H]2O)[C@](C)(O)C[C@@H](C)CN(C)[C@H](C)[C@@H](O)[C@]1(C)O [Compound 15b] | 35.2 ± 5.4 | 36.1 ± 6.1 | 27.7 ± 3.3 | 53.2 ± 0.1 | 
15 | CC[C@H]1OC(=O)[C@H](C)[C@@H](O[C@H]2C[C@@](C)(OC)[C@@H](O)[C@H](C)O2)[C@H](C)[C@@H](O[C@@H]2O[C@H](C)C[C@H](N(C)Cc3ccc(-c4cn(CCCCc5ccc(-n6cc(C)ccc6=O)cc5)nn4)cc3)[C@H]2O)[C@](C)(O)C[C@@H](C)CN(C)[C@H](C)[C@@H](O)[C@]1(C)O [Compound 15c] | 5 ± 0.2 | 5.7 ± 0.1 | 2.6 ± 0.1 | 5.9 ± 0.1 | 
16 | CC[C@H]1OC(=O)[C@H](C)[C@@H](O[C@H]2C[C@@](C)(OC)[C@@H](O)[C@H](C)O2)[C@H](C)[C@@H](O[C@@H]2O[C@H](C)C[C@H](N(C)CC#Cc3ccc(-n4cc(C)ccc4=O)cc3)[C@H]2O)[C@](C)(O)C[C@@H](C)CN(C)[C@H](C)[C@@H](O)[C@]1(C)O [Compound 20a] | 55.9 ± 6.4 | 23.3 ± 3.3 | 53.4 ± 3.3 | 71.4 ± 6.3 | 
17 | CC[C@H]1OC(=O)[C@H](C)[C@@H](O[C@H]2C[C@@](C)(OC)[C@@H](O)[C@H](C)O2)[C@H](C)[C@@H](O[C@@H]2O[C@H](C)C[C@H](N(C)CCC#Cc3ccc(-n4cc(C)ccc4=O)cc3)[C@H]2O)[C@](C)(O)C[C@@H](C)CN(C)[C@H](C)[C@@H](O)[C@]1(C)O [Compound 20b] | 31.2 ± 4.8 | 19.1 ± 2.6 | 24.8 ± 1.7 | 28.5 ± 1.8 | 
18 | CC[C@H]1OC(=O)[C@H](C)[C@@H](O[C@H]2C[C@@](C)(OC)[C@@H](O)[C@H](C)O2)[C@H](C)[C@@H](O[C@@H]2O[C@H](C)C[C@H](N(C)CCCC#Cc3ccc(-n4cc(C)ccc4=O)cc3)[C@H]2O)[C@](C)(O)C[C@@H](C)CN(C)[C@H](C)[C@@H](O)[C@]1(C)O [Compound 20c] | 42.7 ± 8.4 | 41.7 ± 0.1 | 45.2 ± 7.4 | 36.4 ± 3.8 | 
19 | CC[C@H]1OC(=O)[C@H](C)[C@@H](O[C@H]2C[C@@](C)(OC)[C@@H](O)[C@H](C)O2)[C@H](C)[C@@H](O[C@@H]2O[C@H](C)C[C@H](N(C)CCCCC#Cc3ccc(-n4cc(C)ccc4=O)cc3)[C@H]2O)[C@](C)(O)C[C@@H](C)CN(C)[C@H](C)[C@@H](O)[C@]1(C)O [Compound 20d] | 15.5 ± 1.1 | 5.5 ± 0.2 | 12.7 ± 1.3 | 16.2 ± 3.1 | 
20 | CC[C@H]1OC(=O)[C@H](C)[C@@H](O[C@H]2C[C@@](C)(OC)[C@@H](O)[C@H](C)O2)[C@H](C)[C@@H](O[C@@H]2O[C@H](C)C[C@H](N(C)CCCCCC#Cc3ccc(-n4cc(C)ccc4=O)cc3)[C@H]2O)[C@](C)(O)C[C@@H](C)CN(C)[C@H](C)[C@@H](O)[C@]1(C)O [Compound 20e] | 6.1 ± 0.3 | 2.2 ± 0.1 | 2.8 | 4.7 ± 0.3 | 
